Data set [1] concerns MCF7. Put plainly: Antiproliferative activity against human MCF7 cells assessed as inhibition of cell growth after 48 hrs by MTT assay. The conditions noted are these: MCF7, 48 h. The data set is classed as functional, cell-based. A general note: Tetrazolium assays rely on reduction of a dye to a coloured formazan, in cell work by metabolically active cells.
Data set [2] concerns HepG2. In words: Antiproliferative activity against human HepG2 cells assessed as inhibition of cell growth after 48 hrs by MTT assay. Type of data set: functional, cell-based. As to conditions: HepG2, 48 h.
The target in data set [3] is CDK2/Cyclin A2 (Homo sapiens, UniProt P24941). Put plainly: Inhibition of CDK2/Cyclin A2 (unknown origin) after 10 mins by ADP-Glo reagent based assay. Type of data set: protein-complex assay. (In ADP-Glo the light output rises with the ADP produced.)
The nature of data set [4]: Selectivity index, ratio of CC50 for human THLE2 cells to IC50 for human HepG2 cells. As to conditions: THLE2 cells and HepG2 cells, read-out: Ratio CC50/IC50. Type of data set: toxicity.
Data set [5] in a line: Cytotoxicity against human THLE2 cells assessed as reduction in cell viability by MTT assay. Type of data set: cell-based, THLE-2.
Data set [6] deals with MCF7. Put plainly: Induction of cell cycle arrest in human MCF7 cells assessed as accumulation at pre-G1 phase at IC50 after 48 hrs by propidium iodide staining based Flow cytometric analysis (reference value: 1.84%). The data set is classed as functional. A general note: In flow cytometry, cells or beads pass a laser one at a time.
For data set [7], the system named is MCF7. In words: Induction of apoptosis in human MCF7 cells assessed as late apoptotic cells at IC50 after 48 hrs by Annexin V-FITC/propidium iodide staining based flow cytometric analysis (reference value: 0.28 %). Type of data set: functional.
For data set [8], the system named is MCF7. Put plainly: Induction of apoptosis in human MCF7 cells assessed as caspase-9 concentration at IC50 by ELISA (reference value: 2.018 +/- 0.14 ng/ml). The data set is classed as functional.
The test system of data set [9] is MCF7. In words: Induction of apoptosis in human MCF7 cells assessed as fold increase in caspase-9 concentration at IC50 by ELISA. The data set is classed as functional.
In data set [10] the test system is MCF7. In words: Induction of apoptosis in human MCF7 cells assessed as total apoptotic cells at IC50 after 48 hrs by Annexin V-FITC/propidium iodide staining based flow cytometric analysis (reference value: 1.84 %). Type of data set: functional.
Data set [11] concerns the target Cyclin-dependent kinase 1/cyclin B1 (Homo sapiens, UniProt P06493). In words: Inhibition of CDK1/cyclin B (unknown origin). Type of data set: protein-complex assay.
In data set [12] the test system is MCF7. Put plainly: Induction of apoptosis in human MCF7 cells assessed as early apoptotic cells at IC50 after 48 hrs by Annexin V-FITC/propidium iodide staining based flow cytometric analysis (reference value: 0.57 %). The data set is classed as functional.
For data set [13], the system named is MCF7. Put plainly: Induction of cell cycle arrest in human MCF7 cells assessed as accumulation at G2/M phase at IC50 after 48 hrs by propidium iodide staining based Flow cytometric analysis (reference value: […]%). The data set is classed as functional.
Data set [14] in a line: Selectivity index, ratio of CC50 for human MCF10A cells to IC50 for human MCF7 cells. Type of data set: toxicity. The conditions noted are these: MCF10A cells and MCF7 cells, read-out: Ratio CC50/IC50.
In data set [15] the target is Cyclin-dependent kinase 7/ cyclin H (Homo sapiens, UniProt P50613). In words: Inhibition of CDK7/cyclin H (unknown origin). Type of data set: protein-complex assay.
Sequence of Cyclin-dependent kinase 7/ cyclin H (P51946 whole entry): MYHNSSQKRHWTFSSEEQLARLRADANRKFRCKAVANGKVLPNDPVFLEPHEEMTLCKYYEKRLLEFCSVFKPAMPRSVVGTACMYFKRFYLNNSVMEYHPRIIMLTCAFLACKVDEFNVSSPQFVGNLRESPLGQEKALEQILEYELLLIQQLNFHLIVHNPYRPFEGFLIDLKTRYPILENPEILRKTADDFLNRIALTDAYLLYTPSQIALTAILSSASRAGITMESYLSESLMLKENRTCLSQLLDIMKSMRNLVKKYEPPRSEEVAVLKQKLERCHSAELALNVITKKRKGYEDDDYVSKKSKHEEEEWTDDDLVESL
Sequence of Cyclin-dependent kinase 7/ cyclin H (P50613 whole entry): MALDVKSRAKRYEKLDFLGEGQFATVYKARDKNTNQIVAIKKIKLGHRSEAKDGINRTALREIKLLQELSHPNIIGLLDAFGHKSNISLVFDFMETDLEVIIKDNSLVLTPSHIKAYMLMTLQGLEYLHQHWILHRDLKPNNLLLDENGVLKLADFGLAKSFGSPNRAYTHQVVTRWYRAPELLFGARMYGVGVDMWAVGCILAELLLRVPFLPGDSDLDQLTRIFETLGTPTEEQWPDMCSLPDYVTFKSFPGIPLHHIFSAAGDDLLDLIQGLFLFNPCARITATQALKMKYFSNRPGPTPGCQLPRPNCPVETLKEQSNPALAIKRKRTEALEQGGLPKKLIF
Data set [16] concerns MCF7. In words: Induction of cell cycle arrest in human MCF7 cells assessed as accumulation at G0/G1 phase at IC50 after 48 hrs by propidium iodide staining based Flow cytometric analysis (reference value: 55.71%). The data set is classed as functional.
For data set [17], the target named is Cyclin-dependent kinase 4/cyclin D1 (Homo sapiens, UniProt P11802). In words: Inhibition of CDK4/cyclin D1 (unknown origin). Type of data set: protein-complex assay.
Sequence of Cyclin-dependent kinase 4/cyclin D1 (P11802 whole entry): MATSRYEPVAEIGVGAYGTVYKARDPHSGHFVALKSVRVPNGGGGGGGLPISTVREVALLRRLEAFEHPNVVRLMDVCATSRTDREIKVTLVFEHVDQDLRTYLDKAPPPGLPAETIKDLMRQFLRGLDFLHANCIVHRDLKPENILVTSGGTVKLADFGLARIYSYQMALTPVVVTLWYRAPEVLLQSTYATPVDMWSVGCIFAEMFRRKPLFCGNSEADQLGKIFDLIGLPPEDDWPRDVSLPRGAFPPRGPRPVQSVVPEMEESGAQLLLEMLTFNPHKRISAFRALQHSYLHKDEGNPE
Sequence of Cyclin-dependent kinase 4/cyclin D1 (P24385 whole entry, further chain): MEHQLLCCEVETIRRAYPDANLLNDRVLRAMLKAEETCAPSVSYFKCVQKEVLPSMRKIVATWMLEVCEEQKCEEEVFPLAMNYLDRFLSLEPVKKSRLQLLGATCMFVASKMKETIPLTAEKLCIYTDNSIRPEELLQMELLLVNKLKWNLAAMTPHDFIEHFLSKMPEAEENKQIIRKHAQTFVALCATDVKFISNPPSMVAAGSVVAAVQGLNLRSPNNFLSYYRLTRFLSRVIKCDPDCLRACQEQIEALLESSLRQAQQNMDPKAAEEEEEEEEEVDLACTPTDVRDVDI
Data set [18] in a line: Cytotoxicity against human MCF10A cells assessed as reduction in cell viability by MTT assay. Type of data set: cell-based, MCF-10A.
The subject of data set [19] is MCF7. Put plainly: Induction of cell cycle arrest in human MCF7 cells assessed as accumulation at S phase at IC50 after 48 hrs by propidium iodide staining based Flow cytometric analysis (reference value: 39.15%). Type of data set: functional.

Sequence of Cyclin-dependent kinase 1/cyclin B1 (P06493 whole entry): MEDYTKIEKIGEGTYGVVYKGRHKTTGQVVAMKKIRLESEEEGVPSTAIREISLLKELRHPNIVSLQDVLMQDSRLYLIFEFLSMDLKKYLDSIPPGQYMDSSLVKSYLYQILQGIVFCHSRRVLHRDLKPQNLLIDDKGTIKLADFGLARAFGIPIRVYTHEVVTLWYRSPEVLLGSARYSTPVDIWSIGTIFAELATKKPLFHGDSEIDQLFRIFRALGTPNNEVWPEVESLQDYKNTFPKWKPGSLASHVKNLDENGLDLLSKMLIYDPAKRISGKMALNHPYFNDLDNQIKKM
Sequence of Cyclin-dependent kinase 1/cyclin B1 (P14635 whole entry, further chain): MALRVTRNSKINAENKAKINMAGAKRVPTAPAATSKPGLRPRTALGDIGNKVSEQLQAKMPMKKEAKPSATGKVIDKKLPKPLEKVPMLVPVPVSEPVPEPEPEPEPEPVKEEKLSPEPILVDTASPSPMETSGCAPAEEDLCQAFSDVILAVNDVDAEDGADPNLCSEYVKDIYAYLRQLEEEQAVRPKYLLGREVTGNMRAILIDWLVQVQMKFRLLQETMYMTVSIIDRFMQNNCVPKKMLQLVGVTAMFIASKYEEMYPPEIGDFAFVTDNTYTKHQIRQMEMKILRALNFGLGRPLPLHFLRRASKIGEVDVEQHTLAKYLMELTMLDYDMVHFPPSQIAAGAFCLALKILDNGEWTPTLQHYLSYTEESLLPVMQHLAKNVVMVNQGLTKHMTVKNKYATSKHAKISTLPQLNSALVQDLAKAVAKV

Usually IC50 stands for the midpoint of a concentration-inhibition curve. `Cc1ccc(C(=O)C=CNc2cc(-c3ccccc3)nn2-c2ccccc2)cc1`: the half-maximal inhibitory concentration (IC50) in data set [1] was 30.2 µM; in [2], 7.32 µM; in data set [3], 0.0632 µM.

As to `O=C(C=CNc1cc(-c2ccccc2)nn1-c1ccccc1)c1ccc(F)cc1`, the IC50 stood at 9.18 µM in [1], 59.9 µM in data set [2] and 0.133 µM in data set [3].

Usually CC50 stands for the concentration that lowers cell viability or growth by half. As for `O=C(C=CNc1cc(-c2ccccc2)nn1-c1ccccc1)c1cccs1`, the IC50 amounted to 15.4 µM in [1], 2.42 µM in [2] and 0.201 µM in data set [3]. Further, in [4], the selectivity ratio is 8.22. Also, the CC50 in data set [5] came out at 19.9 µM.

With `Brc1ccc(-c2ccnc3c2c(-c2ccccc2)nn3-c2ccccc2)cc1`, the IC50 in [1] worked out at 13.3 µM; in data set [2], 49.9 µM; in data set [3], 0.0807 µM.

Turning to `O=C(C=CNc1cc(-c2ccccc2)nn1-c1ccccc1)c1ccc(Br)cc1`, the IC50 in data set [1] is 21.7 µM; in [2], 8.81 µM; in data set [3], 0.517 µM.

Broadly, the Ki is the dissociation constant of the complex between target and ligand, obtained from inhibition or displacement. Read a high Ki as weaker binding. Take `COc1ccc(-c2nc3c(c(-c4ccccc4)nn3-c3ccccc3)c(-c3ccc(N4CCOCC4)cc3)c2C#N)cc1`: the IC50 was 0.93 µM in data set [1]; 8.13 µM in data set [2]; 0.221 µM in data set [3]; 0.718 µM in data set [11]; 0.318 µM in data set [15]; 21.2 µM in data set [17]. Also, the Activity was found to be 24.36% in [6]; 9.86% in [7]; 20.32 ng/mL in data set [8]; 24.4% in data set [10]; 9.36% in data set [12]; 21.2% in data set [13]. Moreover, the results for the Activity in data set [16] and in [19] were 44.38% and 34.42%, respectively. Further, in data set [9], the “fold change (FC)” value is on record as 9. Also, the Ki in [3] stood at 0.131 µM; in data set [11] it was 0.437 µM; in [15], 0.203 µM; in data set [17], 11.6 µM. Also, in data set [14], the selectivity ratio was determined as 59.9. In addition, the CC50 in data set [18] stood at 55.7 µM.

Take `O=C(C=CNc1cc(-c2ccccc2)nn1-c1ccccc1)c1ccc(Cl)cc1`: the figures for the IC50 in data set [1], in data set [2] and in data set [3] were 8.07 µM, 41.2 µM and 0.122 µM, respectively.

Take `CN1CCN(c2ccc(-c3c(C#N)c(-c4ccc(Cl)cc4)nc4c3c(-c3ccccc3)nn4-c3ccccc3)cc2)CC1`: the IC50 turned out to be 2.71 µM in data set [1], 14.6 µM in data set [2] and 0.129 µM in data set [3].

With `Clc1ccc(-c2ccnc3c2c(-c2ccccc2)nn3-c2ccccc2)cc1`, the IC50 in data set [1] was determined as 61.1 µM; in [2] it was 61.1 µM; in [3] it was 0.386 µM.

`COc1ccc(-c2ccnc3c2c(-c2ccccc2)nn3-c2ccccc2)cc1`: the IC50 was found to be 28.7 µM in data set [1], 6.59 µM in data set [2] and 0.27 µM in [3].

`COc1ccc(-c2nc3c(c(-c4ccccc4)nn3-c3ccccc3)c(-c3ccc(N4CCCCC4)cc3)c2C#N)cc1`: the IC50 in data set [1] came out at 2.76 µM; in data set [2] it was 12.5 µM; in data set [3] it was 0.0851 µM.

Take `N#Cc1c(-c2ccccc2)nc2c(c(-c3ccccc3)nn2-c2ccccc2)c1-c1ccc(N2CCCCC2)cc1`: the IC50 is 27 µM in [1], 30.9 µM in data set [2] and 0.329 µM in data set [3].

With `O=C(C=CNc1cc(-c2ccccc2)nn1-c1ccccc1)c1ccccc1`, the values for the IC50 in data set [1], in data set [2] and in data set [3] were 9.65 µM, 2.66 µM and 0.318 µM, respectively. Further, the selectivity ratio in data set [4] turned out to be 20.1. For the same compound, the CC50 in data set [5] was found to be 53.4 µM.

For `N#Cc1c(-c2ccc(Cl)cc2)nc2c(c(-c3ccccc3)nn2-c2ccccc2)c1-c1ccc(N2CCCCC2)cc1`, the IC50 worked out at 10.6 µM in data set [1], 3.21 µM in data set [2] and 0.195 µM in data set [3]. In data set [4], the selectivity ratio came out at 3.89. The CC50 in [5] was 12.5 µM.

With `Cc1ccc(-c2ccnc3c2c(-c2ccccc2)nn3-c2ccccc2)cc1`, the IC50 in data set [1] was 5.59 µM; in data set [2] it was 10.7 µM; in [3], 0.0819 µM.

For `c1ccc(-c2ccnc3c2c(-c2ccccc2)nn3-c2ccccc2)cc1`, the IC50 in [1] was 28.2 µM; in data set [2], 3.21 µM; in data set [3], 0.348 µM. Moreover, in [4], the selectivity ratio amounted to 10.7. Besides, in data set [5], the CC50 amounted to 34.2 µM.

With `CN1CCN(c2ccc(-c3c(C#N)c(-c4ccccc4)nc4c3c(-c3ccccc3)nn4-c3ccccc3)cc2)CC1`, the results for the IC50 in [1], in data set [2] and in [3] were 14.3 µM, 3.14 µM and 0.161 µM, respectively. Also, the selectivity ratio in [4] was found to be 4.8. Also, in [5], the CC50 worked out at 15.1 µM.

For the compound `N#Cc1c(-c2ccccc2)nc2c(c(-c3ccccc3)nn2-c2ccccc2)c1-c1ccc(N2CCOCC2)cc1`, the IC50 in [1] is 3.34 µM; in data set [2], 10.5 µM; in data set [3] it was 0.096 µM.

As to `N#Cc1c(-c2ccc(Cl)cc2)nc2c(c(-c3ccccc3)nn2-c2ccccc2)c1-c1ccc(N2CCOCC2)cc1`, the IC50 in [1] amounted to 3.65 µM; in [2], 21.5 µM; in [3], 0.644 µM.

Turning to `c1ccc(-c2nn(-c3ccccc3)c3nccc(-c4cccs4)c23)cc1`, the results for the IC50 in data set [1], in data set [2] and in data set [3] were 39.3 µM, 39.3 µM and 0.0568 µM, respectively.

As to `COc1ccc(C(=O)C=CNc2cc(-c3ccccc3)nn2-c2ccccc2)cc1`, the IC50 in data set [1] was 1.29 µM; in data set [2], 2.03 µM; in [3] it was 0.042 µM; in [11] it was 0.955 µM; in [15], 0.326 µM; in [17], 16.7 µM. Besides, the Activity in data set [6] amounted to 36.51%; in data set [7], 20.64%; in data set [8] it was 18.96 ng/mL; in data set [10] it was 36.51%; in [12] it was 2.69%; in data set [13] it was 3.47%. The results for the Activity in data set [16] and in data set [19] were 37.29% and 59.24%, respectively. In addition, the “fold change (FC)” value in [9] was 9. Further, the Ki was found to be 0.025 µM in data set [3], 0.581 µM in data set [11], 0.208 µM in [15] and 9.12 µM in data set [17]. Moreover, the selectivity ratio is 17.3 in data set [4] and 13.1 in data set [14]. For the same compound, the CC50 stood at 16.9 µM in data set [18] and 35.2 µM in data set [5].

On to `COc1cccc2c1C(=O)c1c(O)c3c(c(O)c1C2=O)C[C@@](O)(C(=O)CO)C[C@@H]3O[C@H]1C[C@H](N)[C@H](O)[C@H](C)O1` [DOXORUBICIN], for which the IC50 worked out at 1.88 µM in data set [1] and 7.3 µM in [2]. In addition, the CC50 in data set [18] came to 13.9 µM; in [5], 12.7 µM.
